Laboratory results taken from patent US20240116985A1, “STAPLED PEPTIDES AND METHODS THEREOF” (priority 2020, published 2024).
Like-named read-outs stand apart in the source and are kept apart here.

Experiments:
[1] = target: T1, beta-catenin/TCF4 engagement (Homo sapiens, UniProt P35222); experiment: Nano-BRET target engagement assay (B-cat-Halo & TCF4-Luc in HEK293 cells); format: cell-based; conditions: read-out: NanoBRET Abs IC50
T1 construct: expressed in transfected cells; host or cells: HEK293
T1 sequence (P35222 1-781): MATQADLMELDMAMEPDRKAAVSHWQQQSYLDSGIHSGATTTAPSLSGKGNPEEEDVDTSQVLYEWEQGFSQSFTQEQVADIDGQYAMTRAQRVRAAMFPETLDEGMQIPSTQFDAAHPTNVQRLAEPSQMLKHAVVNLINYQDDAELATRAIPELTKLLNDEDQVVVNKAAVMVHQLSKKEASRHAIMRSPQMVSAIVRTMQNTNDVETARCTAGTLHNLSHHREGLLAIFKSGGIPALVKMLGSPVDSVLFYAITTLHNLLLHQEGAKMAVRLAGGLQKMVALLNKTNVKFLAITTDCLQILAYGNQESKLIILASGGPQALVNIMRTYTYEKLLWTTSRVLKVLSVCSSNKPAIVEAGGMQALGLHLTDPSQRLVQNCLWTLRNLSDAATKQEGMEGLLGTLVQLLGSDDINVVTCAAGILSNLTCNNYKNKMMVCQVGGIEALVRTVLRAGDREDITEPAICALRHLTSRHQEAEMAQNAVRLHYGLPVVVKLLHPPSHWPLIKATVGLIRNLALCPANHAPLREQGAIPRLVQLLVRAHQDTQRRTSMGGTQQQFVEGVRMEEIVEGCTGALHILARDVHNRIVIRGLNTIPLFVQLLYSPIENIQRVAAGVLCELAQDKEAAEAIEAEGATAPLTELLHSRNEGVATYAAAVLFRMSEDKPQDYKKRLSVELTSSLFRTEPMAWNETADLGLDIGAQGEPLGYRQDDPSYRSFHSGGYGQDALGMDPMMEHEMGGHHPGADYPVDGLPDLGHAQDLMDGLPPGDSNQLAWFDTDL

[2] = target: T2, full-length beta-Catenin (Uniprot ID P35222) (Homo sapiens, UniProt P35222); experiment: Fluorescence polarization IC50 (beta-catenin / 5FAM-TCF4 10-53 competition); format: binding; conditions: fluorescence polarization; read-out: beta-Catenin FP IC50
T2 construct: 10 nM full-length beta-Catenin (Uniprot ID P35222)
T2 sequence (P35222 1-781): T1 sequence (P35222 1-781)

With `CCCC[C@@H]1NC(=O)[C@H](Cc2ccccc2)NC(=O)[C@H](C)NC(=O)C(C)(C)NC(=O)[C@H](Cc2cccc(C(=O)O)c2)NC(=O)[C@H](CC(=O)O)NC(=O)C2(CCCC=CCCCOC(=O)N3CC[C@@](C(=O)N[C@@H](Cc4ccsc4)C(=O)N[C@@H](Cc4csc5ccccc45)C(=O)N[C@@H](CCC(=O)N(C)C)C(N)=O)(C3)NC1=O)CCCC=CC[C@]1(CCCN1C(C)=O)C(=O)N[C@@H](CC(=O)O)C(=O)N[C@@H](CC(C)(C)C)C(=O)N2` (stereo partly drawn) [I-2551, Ac-PL3-Asp-Npg-B5-Asp-3COOHF-Aib-Ala-Phe-nLeu-PyrS2-3Thi-BztA-[NMe2]GlnR-NH2] the IC50 ([1]; absolute IC50) was 9800 nM and the IC50 [2] was 8 nM.

In the case of `CCCc1cn(CCCC[C@H](NC(=O)[C@H](Cc2csc3ccccc23)NC(=O)[C@H](Cc2ccsc2)NC(=O)[C@]23CCN(C2)C(=O)OCCCC=CCCCC2(CCCC=CC[C@]4(CCCN4C(C)=O)C(=O)N[C@@H](CC(=O)O)C(=O)N[C@@H](CC(C)(C)C)C(=O)N2)C(=O)N[C@@H](CC(=O)O)C(=O)N[C@@H](CC(=O)O)C(=O)N[C@@H](C)C(=O)N[C@@H](C)C(=O)N[C@@H](Cc2ccccc2)C(=O)N[C@@H](CC(C)C)C(=O)N3)C(N)=O)nn1` (stereo partly drawn) [I-2375, Ac-PL3-Asp-Npg-B5-Asp-Asp-Ala-Ala-Phe-Leu-PyrS2-3Thi-BztA-[3C]TriAzLys-NH2], the IC50 ([1]; absolute IC50) is reported as 13500 nM and the IC50 [2] is reported as 5 nM.

Compound `CC(=O)N1CCC[C@]12CC=CCCCC1(CCCC=CCCCOC(=O)N3CC[C@@](C(=O)N[C@@H](Cc4ccsc4)C(=O)N[C@@H](Cc4csc5ccccc45)C(=O)N[C@@H](CCC(N)=O)C(N)=O)(C3)NC(=O)[C@H](CCC(=O)NCc3ccccc3)NC(=O)[C@H](Cc3ccccc3)NC(=O)[C@H](C)NC(=O)[C@H](C)NC(=O)[C@H](CN(CC(=O)O)CC(F)(F)F)NC(=O)[C@H](CC(=O)O)NC1=O)NC(=O)[C@H](CC(C)(C)C)NC(=O)[C@H](CC(=O)O)NC2=O` (stereo partly drawn) [I-1942, Ac-PL3-Asp-Npg-B5-Asp-TfeGA-Ala-Ala-Phe-[NHBn]GlnR-PyrS2-3Thi-BztA-Gln-NH2] has an IC50 [1] of 7900 nM and an IC50 [2] of 11 nM.

Compound `CC(=O)N1CCC[C@]12CC=CCCCC1(CCCC=CCCCOC(=O)N3CC[C@@](C(=O)N[C@@H](Cc4ccsc4)C(=O)N[C@@H](Cc4csc5ccccc45)C(=O)N[C@@H](CCC(N)=O)C(N)=O)(C3)NC(=O)[C@H](CC(N)=O)NC(=O)[C@H](Cc3ccccc3)NC(=O)[C@H](C)NC(=O)[C@H](C)NC(=O)[C@H](Cc3c[nH]c4ccccc34)NC(=O)[C@H](CC(=O)O)NC1=O)NC(=O)[C@H](CC(C)(C)C)NC(=O)[C@H](CC(=O)O)NC2=O` (stereo partly drawn) [I-1788, Ac-PL3-Asp-Npg-B5-Asp-Trp-Ala-Ala-Phe-Asn-PyrS2-3Thi-BztA-Gln-NH2] has an IC50 ([1]; absolute IC50) of 33900 nM and an IC50 [2] of 58 nM.

In the case of `CC(=O)N1CCC[C@]12CC=CCCCC1(CCCC=CCCCOC(=O)N3CC[C@@](C(=O)N[C@@H](Cc4ccccc4C(F)(F)F)C(=O)N[C@@H](Cc4csc5ccccc45)C(=O)N[C@@H](CCC(=O)N4CCOCC4)C(N)=O)(C3)NC(=O)[C@H](CCC(=O)N(C)C)NC(=O)[C@H](Cc3ccccc3)NC(=O)[C@H](C)NC(=O)[C@H](C)NC(=O)[C@H](Cc3cccc(C(=O)O)c3)NC(=O)[C@H](CC(=O)O)NC1=O)NC(=O)[C@H](CC(C)(C)C)NC(=O)[C@H](CC(=O)O)NC2=O` (stereo partly drawn) [I-2544, Ac-PL3-Asp-Npg-B5-Asp-3COOHF-Ala-Ala-Phe-Me2Gln-PyrS2-2F3MeF-BztA-MorphGln-NH2], the IC50 ([1]; absolute IC50) is reported as 4100 nM and the IC50 [2] is reported as 11 nM.

`CC(=O)N1CCC[C@]12CC=CCCCC1(CCCC=CCCCCCC[C@@](C)(C(=O)N[C@@H](Cc3ccccc3)C(=O)N[C@@H](Cc3csc4ccccc34)C(=O)N[C@@H](CCC(N)=O)C(N)=O)NC(=O)[C@H](CCO)NC(=O)[C@H](Cc3ccccc3)NC(=O)[C@H](C)NC(=O)[C@H](C)NC(=O)[C@H](CCC(=O)O)NC(=O)[C@H](CC(=O)O)NC1=O)NC(=O)[C@H](CCO)NC(=O)[C@H](CC(=O)O)NC2=O` (stereo partly drawn) [I-1547, Ac-PL3-Asp-Hse-B5-Asp-Glu-Ala-Ala-Phe-Hse-S8-Phe-BztA-Gln-NH2] was tested, and the IC50 ([1]; absolute IC50) was over 20000 nM and the IC50 [2] was 68 nM.

Compound `CC(=O)N1CCC[C@]12CC=CCCCC1(CCCC=CCCCOC(=O)N3CC[C@@](C(=O)N[C@@H](Cc4ccsc4)C(=O)N[C@@H](Cc4csc5ccccc45)C(=O)N[C@@H](CCC(N)=O)C(N)=O)(C3)NC(=O)[C@H](CC(C)C)NC(=O)[C@H](Cc3ccccc3)NC(=O)[C@H](C)NC(=O)[C@H](C)NC(=O)[C@H](CCCC(=O)O)NC(=O)[C@H](CC(=O)O)NC1=O)NC(=O)[C@H](CC(C)(C)C)NC(=O)[C@H](CC(=O)O)NC2=O` (stereo partly drawn) [I-1438, Ac-PL3-Asp-Npg-B5-Asp-Aad-Ala-Ala-Phe-Leu-PyrS2-3Thi-BztA-Gln-NH2] has an IC50 ([1]; absolute IC50) of 7400 nM and an IC50 [2] of 5 nM.

Work on `CC(=O)N1CCC[C@]12CC=CCCCC1(CCCC=CCCCOC(=O)N3CC[C@@](C(=O)N[C@@H](Cc4ccccc4Cl)C(=O)N[C@@H](Cc4csc5ccccc45)C(=O)N[C@@H](CO)C(N)=O)(C3)NC(=O)[C@H](CC(C)C)NC(=O)[C@H](Cc3ccccc3)NC(=O)[C@H](C)NC(=O)C(C)(C)NC(=O)[C@H](Cc3cccc(C(=O)O)c3)NC(=O)[C@H](CC(=O)O)NC1=O)NC(=O)[C@H](CC(C)(C)C)NC(=O)[C@H](CC(=O)O)NC2=O` (stereo partly drawn) [I-1899, Ac-PL3-Asp-Npg-B5-Asp-3COOHF-Aib-Ala-Phe-Leu-PyrS2-2C1F-BztA-Ser-NH2] yielded an IC50 [1] of 5100 nM and an IC50 [2] of 28 nM.

`CC(=O)N1CCC[C@]12CC=CCCCC1(CCCC=CCCCOC(=O)N3CC[C@@](C(=O)N[C@@H](Cc4ccccc4)C(=O)N[C@@H](Cc4csc5ccccc45)C(=O)N[C@@H](CCC(N)=O)C(N)=O)(C3)NC(=O)[C@H](CC(N)=O)NC(=O)[C@H](Cc3ccccc3)NC(=O)[C@H](C)NC(=O)[C@H](CCCCNC(C)C)NC(=O)[C@H]([C@@H](C)O)NC(=O)[C@H](CC(=O)O)NC1=O)NC(=O)[C@H](CC(C)(C)C)NC(=O)[C@H](CC(N)=O)NC2=O` (stereo partly drawn) [I-1602, Ac-PL3-Asn-Npg-B5-Asp-Thr-iPrLys-Ala-Phe-Asn-PyrS2-Phe-BztA-Gln-NH2] was tested, and the IC50 ([1]; absolute IC50) was over 20000 nM and the IC50 [2] was 362 nM.

With `CC(=O)N1CCC[C@]12CC=CCCCC1(CCCC=CCCCOC(=O)N3CC[C@@](C(=O)N[C@@H](Cc4ccccc4Cl)C(=O)N[C@@H](Cc4csc5ccccc45)C(=O)N[C@@H](CCCN4CCC(F)(F)CC4)C(N)=O)(C3)NC(=O)[C@H]([C@@H](C)O)NC(=O)[C@H](Cc3ccccc3)NC(=O)[C@H](C)NC(=O)[C@H](C)NC(=O)[C@H](CN(CC(=O)O)CC(F)(F)F)NC(=O)[C@H](CC(=O)O)NC1=O)NC(=O)[C@H](CC(C)(C)C)NC(=O)[C@H](CC(=O)O)NC2=O` (stereo partly drawn) [I-1607, Ac-PL3-Asp-Npg-B5-Asp-TfeGA-Ala-Ala-Phe-Thr-PyrS2-2C1F-BztA-F2PipNva-NH2] the IC50 ([1]; absolute IC50) was 11900 nM and the IC50 [2] was 49 nM.

Compound `CC(=O)N1CCC[C@]12CC=CCCCC1(CCCC=CCCCOC(=O)N3CC[C@@](C(=O)N[C@@H](Cc4ccsc4)C(=O)N[C@@H](Cc4csc5ccccc45)C(=O)N[C@@H](CCC(N)=O)C(N)=O)(C3)NC(=O)[C@H](CC(C)C)NC(=O)[C@H](Cc3ccccc3)NC(=O)[C@H](C)NC(=O)[C@H](C)NC(=O)[C@H](Cc3cc(C(=O)O)cc(C(F)(F)F)c3)NC(=O)[C@H](CC(=O)O)NC1=O)NC(=O)[C@H](CC(C)(C)C)NC(=O)[C@H](CC(=O)O)NC2=O` (stereo partly drawn) [I-2208, Ac-PL3-Asp-Npg-B5-Asp-5F3Me3COOHF-Ala-Ala-Phe-Leu-PyrS2-3Thi-BztA-Gln-NH2] has an IC50 ([1]; absolute IC50) of 5700 nM and an IC50 [2] of 27 nM.
